Test results as given in patent US20260207632A1, “C[…] THERAPY” (KINGDOM THERAPEUTICS LIMITED, priority 2022, published 2026).

What was measured:
[1] = system: rat VPA model of autism; experiment: Irritability-like behaviour: bottle-brush test (P30) in VPA rat model; type: in vivo; set-up: key to bottle brush irritability: +: improvement; Ø: no change
Protocol: (§1) In the first study, a sub-chronic 8-day dosing schedule was employed with the test compound CBD administered alone (10, 30 and 60 mg/kg, p.o. VPA/CBD; dose volume 5 ml/kg). Control animals were administered sterile saline (0.9% w/v, i.p.) in utero and the vehicle control (ethanol: Kolliphor HS-15:0.9% saline (1:1:18, v/v/v) p.o. VEH/VEH). The test compound and vehicle control were administered to the animals once daily for 7 days prior to, and once again on each day of behavioural assessment, 60 minutes prior to test which consisted of a battery of behavioural paradigms: P30 social play and bottle brush test, P31-32 open field exploratory behaviour. A reference positive control, the atypical antipsychotic risperidone (0.125 mg/kg, i.p., once per day for 8 days prior to and for duration of behavioural testing), was included in study one for comparison. Subsequent to behavioural analysis the effect of CBD on gastrointestinal permeability was evaluated four hours following oral administration of fluorescein isothiocyanate-labelled dextran measured in plasma on postnatal day 33. On postnatal day 34, 60 minutes post a final treatment with the test agents, animals were humanely euthanised and samples collected to evaluate inflammatory biomarkers, gastrointestinal function and histology. 5 In the second study, the sub-optimal dose of CBD (30 mg/kg, p.o.) was evaluated in combination with administration of THC at increasing concentration (0.75, 1.5 and 3 mg/kg, p.o. VPA/CBD+THC). Comparison was made to CBD administered alone at the sub-optimal and effective doses (30 and 60 mg/kg, p.o.) and to vehicle controls as per study one. Behavioural and gastrointestinal readouts were examined as per study one with terminal samples collected on the final day of the experiment.
To test irritability-like behaviour we employed the bottle-brush test modified for rats (Riittinen et al. 1986). Irritability-like behaviour was examined by measuring aggressive and defensive responses during the bottle-brush test carried out in juvenile animals immediately after play behaviour evaluation at P30. Irritability-like behaviour testing was performed under dark conditions with a red light and infrared camera recording (Kononoff et al., 2018). Testing consisted of 10 trials per rat in plastic cages (377×325×170 mm) with fresh bedding. During each trial, the rat was placed at the back of the cage. A bottle-brush was rotated toward the animal's whiskers (from the front of the cage). The brush was rotated around the whiskers of the rat for approximately 1 second. The brush was then rotated back to the front of the cage where it hung vertically for approximately 2 seconds, during which behavioural responses were recorded. An intertrial interval of 10 seconds was used, with each new trial started with the animal returned to the back of the cage. All testing was conducted in the morning, starting at 09.00 and concluded before 12.00.
Employing video analysis of the test the following were scored as aggressive responses: smelling the brush, biting the brush (during the initial phase of rotating the brush forward and back to the starting position), boxing the target, following the brush, exploring the brush (using paws or mouth to manipulate the brush without biting or boxing), mounting the brush, and delayed biting (during the 2 s that the brush hung at the starting position). The following were scored as defensive responses: escaping from the brush, digging, burying, jumping, climbing, vocalization, freezing, and grooming. Grooming and digging were additionally recorded during the 10 second intertrial intervals. Frequency and total time engaged in each behaviour and the sum of aggressive and defensive behaviours, referred to as the irritability score (Kononoff et al, 2018), were recorded.

[2] = system: rat VPA model of autism; experiment: Juvenile social play behaviour (P30) in the in utero valproic acid (VPA) rat model of autism; type: in vivo; set-up: key to play behaviour: +: improvement; Ø: no change
Protocol: Time-mated female Wistar rats were administered a single dose of valproic acid (VPA, 600 mg/kg, i.p.) on gestational day 12.5 (VPA/VEH). To determine behavioural deficits in the VPA autism model, male offspring were tested at juvenile (postnatal day 30) for the presence of abnormal behaviours associated with autism e.g., decreased sociability and increased irritability.
as §1
Time-mated female Wistar Han Rcc rats (Envigo, UK) were administered a single dose of valproic acid (VPA, Sigma Aldrich, Ireland, lot no. MKCB2699V, 600 mg/kg, i.p.) or vehicle (0.9% saline i.p.) on gestational day 12.5. Confirmation of the VPA induced developmental deficit was rapidly achieved by examination of characteristic “tail kinks” observed in all of the juvenile animals exposed to VPA. Litters were normalised to 8 animals and to male offspring at postnatal day 3. Male pups were cross fostered to make up the uniform litter size of eight. Male offspring were housed as per standard laboratory conditions until time of experimental use. Vehicle-treated control animals were employed as controls, with animals for both parts of the study prepared together. At weaning, animals were allocated into test groups according to a balanced design based on weight and litter to distribute these equally across each treatment group. Animals were introduced to the experimental holding rooms prior to the commencement of the study, housed in groups of 4 during this period in soft bottomed cages with sawdust bedding material, with enrichment consisting of nesting material, cardboard tubes and Perspex internal shelter, and maintained at 22-24° C. on a standard 12-hour light/dark cycle (07.30-19.30), with food and water available ad libitum. All animals were examined and weighed daily during drug treatment and experimental protocols. All procedures were carried out by individuals retaining the appropriate authorisation from the Irish Government Health Products Regulatory Authority. Furthermore, the study protocol was approved by the Animal Research Ethics Committee of University College Dublin, Ireland. […]

[3] = cohort two, CBD 30 mg/kg, THC 0 mg/kg p.o.
[4] = cohort two, CBD 60 mg/kg, THC 0 mg/kg p.o.
[5] = study one, CBD 10 mg/kg, vs VPA/VEH
[6] = study one, CBD 30 mg/kg, vs VPA/VEH
[7] = study one, CBD 60 mg/kg, vs VPA/VEH
[8] = cohort one, risperidone 0.125 mg/kg i.p.
[9] = study one, risperidone 0.125 mg/kg i.p.
[10] = study one, risperidone 0.125 mg/kg

C=C(C)[C@@H]1CCC(C)=C[C@H]1c1c(O)cc(CCCCC)cc1O [CBD, cannabidiol]
bottle brush irritability ([1]; cohort one, CBD 10 mg/kg p.o.): Ø | bottle brush irritability ([1]; cohort one, CBD 30 mg/kg p.o.): + | bottle brush irritability ([1]; cohort one, CBD 60 mg/kg p.o.): + | bottle brush irritability [1, 3]: Ø | bottle brush irritability [1, 4]: + | increase in aggressive responses, bottle brush [1, 5]: significantly reduced | irritability score (combined aggressive and defensive behaviours) [1, 5]: significantly reduced | irritability score (combined aggressive and defensive behaviours) [1, 6]: significantly reduced | increase in aggressive responses, bottle brush [1, 7]: significantly reduced | irritability score (combined aggressive and defensive behaviours) [1, 7]: significantly reduced | increase in aggressive responses, bottle brush ([1]; study two, CBD 30 mg/kg): without effect | irritability score (combined aggressive and defensive behaviours) ([1]; study two, CBD 30 mg/kg): without effect | increase in aggressive responses, bottle brush ([1]; study two, CBD 60 mg/kg): significantly reduced | irritability score (combined aggressive and defensive behaviours) ([1]; study two, CBD 60 mg/kg): significantly reduced | play behaviour ([2]; cohort one, CBD 10 mg/kg p.o.): Ø | play behaviour ([2]; cohort one, CBD 30 mg/kg p.o.): Ø | play behaviour ([2]; cohort one, CBD 60 mg/kg p.o.): + | play behaviour [2, 3]: Ø | play behaviour [2, 4]: + | Mount Duration (sec) ([2]; study one, CBD 10 mg/kg): X (X = no effect) | Mount Frequency ([2]; study one, CBD 10 mg/kg): X (X = no effect) | Social Play Duration (sec) ([2]; study one, CBD 10 mg/kg): X (X = no effect) | Social Play Frequency ([2]; study one, CBD 10 mg/kg): X (X = no effect) | Social Play Latency (sec) ([2]; study one, CBD 10 mg/kg): X (X = no effect) | latency to engage in mounting play behaviour (delay) [2, 5]: significantly attenuated | Mount Duration (sec) ([2]; study one, CBD 30 mg/kg): X (X = no effect) | Mount Frequency ([2]; study one, CBD 30 mg/kg): X (X = no effect) | Social Play Duration (sec) ([2]; study one, CBD 30 mg/kg): X (X = no effect) | Social Play Frequency ([2]; study one, CBD 30 mg/kg): X (X = no effect) | Social Play Latency (sec) ([2]; study one, CBD 30 mg/kg): X (X = no effect) | latency to engage in mounting play behaviour (delay) [2, 6]: significantly attenuated | Social Play Frequency ([2]; study one, CBD 60 mg/kg): X (X = no effect) | Social Play Latency (sec) ([2]; study one, CBD 60 mg/kg): X (X = no effect) | decrease in duration of mounting behaviour [2, 7]: reversed | decrease in frequency of mounting behaviour [2, 7]: ameliorated | latency to engage in mounting play behaviour (delay) [2, 7]: significantly attenuated | reduction in social play duration [2, 7]: significantly attenuated | reduction in social play duration ([2]; study two, CBD 30 mg/kg): without effect | decrease in duration of mounting behaviour ([2]; study two, CBD 60 mg/kg): reversed | reduction in social play duration ([2]; study two, CBD 60 mg/kg, vs VPA/VEH): significantly attenuated | Mount Duration (sec) ([2]; study two, CBD alone 30 mg/kg): X (X = no effect) | Mount Frequency ([2]; study two, CBD alone 30 mg/kg): X (X = no effect) | Mount Latency (sec) ([2]; study two, CBD alone 30 mg/kg): X (X = no effect) | Social Play Duration (sec) ([2]; study two, CBD alone 30 mg/kg): X (X = no effect) | Social Play Frequency ([2]; study two, CBD alone 30 mg/kg): X (X = no effect) | Social Play Latency (sec) ([2]; study two, CBD alone 30 mg/kg): X (X = no effect) | Mount Frequency ([2]; study two, CBD alone 60 mg/kg): X (X = no effect) | Mount Latency (sec) ([2]; study two, CBD alone 60 mg/kg): X (X = no effect) | Social Play Frequency ([2]; study two, CBD alone 60 mg/kg): X (X = no effect) | Social Play Latency (sec) ([2]; study two, CBD alone 60 mg/kg): X (X = no effect)

Cc1nc2n(c(=O)c1CCN1CCC(c3noc4cc(F)ccc34)CC1)CCCC2 [Risperidone, risperidone]
bottle brush irritability [1, 8]: + | increase in aggressive responses, bottle brush [1, 9]: significantly reduced | irritability score (combined aggressive and defensive behaviours) [1, 9]: significantly reduced | play behaviour [2, 8]: Ø | any other measure of play or social interaction in juvenile animals ([2]; risperidone 0.125 mg/kg): without effect | Mount Duration (sec) [2, 10]: X (X = no effect) | Mount Frequency [2, 10]: X (X = no effect) | Social Play Duration (sec) [2, 10]: X (X = no effect) | Social Play Frequency [2, 10]: X (X = no effect) | Social Play Latency (sec) [2, 10]: X (X = no effect)
